Results from EP0602465A1, “Use of CN substituted benzimidazoles” (BAYER AG, priority 1992, dated 1994).

Key:
Assay in all cases: Coccidiosis in chickens: oocyst excretion in faeces (McMaster chamber)
Assay type in all cases: in vivo
Details in all cases: 3 days before until 8 days after infection, chicks 9 to 11 days old, 40 000 sporulated oocysts, 100 % = no effect, 0 % = full effect
E. tenella = tested on: E. tenella
E. maxima = tested on: E. maxima
E.acervulina = tested on: E.acervulina

| SMILES | E. tenella (E. tenella; Dosis 100 ppm in feed) [%] | E. tenella (E. tenella; Dosis 250 ppm in feed) [%] | E. maxima Oocytenausscheidung in % im Vergleich zur unbehandelten infizierten Kontrolle (E. maxima; Dosis 100 ppm in feed) | E. maxima Oocytenausscheidung in % im Vergleich zur unbehandelten infizierten Kontrolle (E. maxima; Dosis 250 ppm in feed) [%] | E.acervulina Oocystenausscheidung in % im Vergleich zur unbehandelten infizierten Kontrolle (E.acervulina; Dosis 100 ppm in feed) [%] | E.acervulina Oocystenausscheidung in % im Vergleich zur unbehandelten infizierten Kontrolle (E.acervulina; Dosis 250 ppm in feed) |
| --- | --- | --- | --- | --- | --- | --- |
| CCCCN(Cn1c(C#N)nc2c(Br)cc(C(F)(F)F)cc21)C(=O)OC [Beispiel 37] | 32 | 0 | 26% | 0 | 28 | 0,5% |
| CC(C)OC(=O)N(Cc1ccccc1)Cn1c(C#N)nc2c(Br)cc(C(F)(F)F)cc21 [Beispiel 57] | 93 | 0 | 5,3% | 0 | 38 | 0,01% |
